Here are results for 9 compounds from patent US11046686B2, “Thiadiazole IRAK4 compounds” (Gilead Sciences, Inc., priority 2018, dated 2021).

Where two headings read alike, the source gives them in different places.

One test addresses IRAK4 enzyme (Homo sapiens (Human), UniProt Q9NWZ3). Kind of test: IRAK4 Biochemical Assay (TR-FRET, STK1 KinEASE). The procedure, abridged:
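TR-FRET endpoint (KinEASE STK1): phosphopeptide detected with cryptate antibody and tracer after EDTA quench, ratio 665/615 nm, normalized to no-inhibitor wells as % inhibition. Reaction: 0.75 nM IRAK4, […] peptide, 500 μM ATP, pH 7.0 HEPES, 120 min room temperature, after 15 min compound preincubation with enzyme.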

Another test has as its system TNFα. Kind of test: IRAK4 Monocyte TNFα Cell Based Assay. Further details: species or system human. Conditions: Homo sapiens, Monocyte, read-out: EC50 MONO TNF HTRF. The procedure, abridged: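 TNFα release quantified by HTRF (cryptate/XL665 antibody pair, overnight at RT) after 1 h compound pre-incubation (0.1% DMSO) and 4 h LPS challenge at 50 pg/ml, 37 °C, 5,000 monocytes per well. Signal ratio normalised between unstimulated (0%) and stimulated (100%) controls.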
(In general: Time-resolved FRET reads energy transfer from a long-lived donor to a nearby acceptor.)

Setting [1] is: human monocytes, second part of Table 2, compounds 33-343, unit inferred.

Chain of IRAK4 enzyme (Q9NWZ3 whole entry): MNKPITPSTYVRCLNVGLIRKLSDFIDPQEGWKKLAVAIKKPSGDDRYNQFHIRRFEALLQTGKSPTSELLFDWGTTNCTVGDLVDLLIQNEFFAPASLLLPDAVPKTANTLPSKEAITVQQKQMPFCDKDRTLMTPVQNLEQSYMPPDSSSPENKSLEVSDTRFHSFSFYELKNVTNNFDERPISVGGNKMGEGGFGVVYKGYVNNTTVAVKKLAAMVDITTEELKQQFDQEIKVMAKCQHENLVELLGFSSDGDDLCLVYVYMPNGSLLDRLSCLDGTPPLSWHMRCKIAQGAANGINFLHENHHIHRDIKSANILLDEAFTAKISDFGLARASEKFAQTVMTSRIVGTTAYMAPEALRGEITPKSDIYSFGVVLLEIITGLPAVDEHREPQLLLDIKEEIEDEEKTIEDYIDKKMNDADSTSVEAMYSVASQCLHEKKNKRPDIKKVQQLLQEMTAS

Compound `CC(=O)N[C@H]1CCN(c2nnc(-c3cnc(-c4ccc5cc(C#N)cnn45)cc3NC(C)C)s2)CC1(F)F` [Example 169, (S)-N-(1-(5-(6-(3-cyanopyrrolo[1,2-b]pyridazin-7-yl)-4-(isopropylamino)pyridin-3-yl)-1,3,4-thiadiazol-2-yl)-3,3-difluoropiperidin-4-yl)acetamide] came in with an IC50 at IRAK4 enzyme of 0.93 nM. Moreover, the EC50 in the test on TNFα (setting [1]) came out at 220 nM.
The matching figures for `CC(=O)NC1CCC2(C1)CN(c1nnc(-c3cnc(-c4ccc5cc(C#N)cnn45)cc3NC(C)C)s1)C2` (stereo not drawn) [Example 170, N-(2-(5-(6-(3-cyanopyrrolo[1,2-b]pyridazin-7-yl)-4-(isopropylamino)pyridin-3-yl)-1,3,4-thiadiazol-2-yl)-2-azaspiro[3.4]octan-6-yl)acetamide]: 0.36 nM and 16 nM.
In turn, `N#Cc1cnn2c(-c3cc(NC4CCOCC4)c(-c4nnc(N5CC6CC(C5)O6)s4)cn3)ccc2c1` [Example 177, 7-(5-(5-(6-oxa-3-azabicyclo[3.1.1]heptan-3-yl)-1,3,4-thiadiazol-2-yl)-4-((tetrahydro-2H-pyran-4-yl)amino)pyridin-2-yl)pyrrolo[1,2-b]pyridazine-3-carbonitrile] displayed an IC50 against IRAK4 enzyme of 0.41 nM. Besides, the EC50 with TNFα worked out at 8.3 nM.
For `C[C@H](C#N)Nc1cc(-c2ccc3cc(C#N)cnn23)ncc1-c1nnc(N2CC3CC(C2)O3)s1` [Example 178, 7-(5-(5-(6-oxa-3-azabicyclo[3.1.1]heptan-3-yl)-1,3,4-thiadiazol-2-yl)-4-(((R)-1-cyanoethyl)amino)pyridin-2-yl)pyrrolo[1,2-b]pyridazine-3-carbonitrile] the same measures were 0.45 nM and 4.9 nM.
Take `CC(=O)N[C@@H]1CCN(c2nnc(-c3cnc(-c4ccc5cc(C#N)cnn45)cc3NC3COC3)s2)CC1(F)F` [Example 183, (R)-N-(1-(5-(6-(3-cyanopyrrolo[1,2-b]pyridazin-7-yl)-4-(oxetan-3-ylamino)pyridin-3-yl)-1,3,4-thiadiazol-2-yl)-3,3-difluoropiperidin-4-yl)acetamide]: 0.5 nM corresponded to half-maximal inhibition at IRAK4 enzyme (IC50). For the same compound, in the test with TNFα (setting [1]), the EC50 came to 8.8 nM.
In the case of `CC1(O)CCN(c2nnc(-c3cnc(-c4ccc5cc(C#N)cnn45)cc3NC3COC3)s2)CC1` [Example 187, 7-(5-(5-(4-hydroxy-4-methylpiperidin-1-yl)-1,3,4-thiadiazol-2-yl)-4-(oxetan-3-ylamino)pyridin-2-yl)pyrrolo[1,2-b]pyridazine-3-carbonitrile], the IC50 against IRAK4 enzyme was found to be 0.66 nM. For the same compound, the EC50 in the test on TNFα (setting [1]) turned out to be 10.8 nM.
For `CC1(O)CCN(c2nnc(-c3cnc(-c4ccc5cc(C#N)cnn45)cc3NC3CCOCC3)s2)CC1` [Example 188, 7-(5-(5-(4-hydroxy-4-methylpiperidin-1-yl)-1,3,4-thiadiazol-2-yl)-4-((tetrahydro-2H-pyran-4-yl)amino)pyridin-2-yl)pyrrolo[1,2-b]pyridazine-3-carbonitrile] the same measures were 1.07 nM and 7.6 nM.
The matching figures for `CC(C)Nc1cc(-c2ccc3cc(C#N)cnn23)ncc1-c1nnc(N2CC[C@](C)(O)[C@@H](F)C2)s1` [Example 190, 7-(5-(5-((3S,4S)-3-fluoro-4-hydroxy-4-methylpiperidin-1-yl)-1,3,4-thiadiazol-2-yl)-4-(isopropylamino)pyridin-2-yl)pyrrolo[1,2-b]pyridazine-3-carbonitrile]: 1.39 nM and 11.7 nM.
In the case of `CC(C)Nc1cc(-c2ccc3cc(C#N)cnn23)ncc1-c1nnc(N2CC[C@@](C)(O)[C@H](F)C2)s1` [Example 191, 7-(5-(5-((3R,4R)-3-fluoro-4-hydroxy-4-methylpiperidin-1-yl)-1,3,4-thiadiazol-2-yl)-4-(isopropylamino)pyridin-2-yl)pyrrolo[1,2-b]pyridazine-3-carbonitrile], the IC50 against IRAK4 enzyme is 1.15 nM. Also, the EC50 in the test on TNFα (setting [1]) was found to be 22.9 nM.

The IC50 is the midpoint of a concentration-inhibition curve. Read a high IC50 as lower potency. One may read the EC50 as the concentration giving half of the maximal effect.
